Data published in US8168651B2, “Protein kinase modulators” (Cylene Pharmaceuticals, Inc., priority 2008, dated 2012).
One block for each compound: values may come before it.

Experiments:
[1] = molecular target: each individual kinase of the panel (Homo sapiens, UniProt P09619); experiment: Standardized radiometric kinase assays, percentage of activity at 0.5 μM; details: for % Activity: PDGFRβ(h);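 as to all read-outs here: Read-out is ³³P-labelled substrate protein phosphorylated by each kinase, captured on filters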
[2] = molecular target: each individual kinase of the panel (Homo sapiens, UniProt P54756); experiment: as above; details: for % Activity: EphA5(h)
[3] = molecular target: each individual kinase of the panel (Homo sapiens, UniProt P49841); experiment: as above; details: for % Activity: GSK3β(h)
[4] = molecular target: each individual kinase of the panel (Homo sapiens, UniProt Q9Y6M4); experiment: as above; details: for % Activity: CK1γ3(h)
[5] = molecular target: each individual kinase of the panel (Homo sapiens, UniProt P04049); experiment: as above; details: for % Activity: c-RAF(h)
[6] = molecular target: each individual kinase of the panel (Homo sapiens, UniProt Q96SB4); experiment: as above; details: for % Activity: SRPK1(h)
[7] = molecular target: each individual kinase of the panel (Homo sapiens, UniProt O15530); experiment: as above; details: for % Activity: PDK1(h)
[8] = molecular target: each individual kinase of the panel (Homo sapiens, UniProt P08631); experiment: as above; details: for % Activity: Hck(h)
each individual kinase of the panel (Homo sapiens, UniProt P08631), sequence (P08631 2-526 limits assumed): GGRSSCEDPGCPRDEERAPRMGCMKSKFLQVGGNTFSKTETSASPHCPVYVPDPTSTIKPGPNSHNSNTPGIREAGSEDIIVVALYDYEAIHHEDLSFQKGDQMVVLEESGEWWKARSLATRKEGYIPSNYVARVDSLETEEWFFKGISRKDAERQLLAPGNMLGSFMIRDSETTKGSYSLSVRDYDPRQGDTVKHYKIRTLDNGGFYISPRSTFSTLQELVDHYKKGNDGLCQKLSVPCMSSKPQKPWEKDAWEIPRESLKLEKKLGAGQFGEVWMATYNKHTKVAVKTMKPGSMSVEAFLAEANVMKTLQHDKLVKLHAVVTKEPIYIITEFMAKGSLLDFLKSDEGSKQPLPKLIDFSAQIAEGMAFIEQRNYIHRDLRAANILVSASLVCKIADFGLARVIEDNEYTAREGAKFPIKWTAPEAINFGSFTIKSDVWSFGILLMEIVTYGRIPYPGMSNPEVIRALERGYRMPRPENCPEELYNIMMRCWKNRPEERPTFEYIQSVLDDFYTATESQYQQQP

[9] = molecular target: each individual kinase of the panel (Homo sapiens, UniProt P21802); experiment: as above; details: for % Activity: FGFR2(h)
each individual kinase of the panel (Homo sapiens, UniProt P21802), sequence (P21802 22-821 limits assumed): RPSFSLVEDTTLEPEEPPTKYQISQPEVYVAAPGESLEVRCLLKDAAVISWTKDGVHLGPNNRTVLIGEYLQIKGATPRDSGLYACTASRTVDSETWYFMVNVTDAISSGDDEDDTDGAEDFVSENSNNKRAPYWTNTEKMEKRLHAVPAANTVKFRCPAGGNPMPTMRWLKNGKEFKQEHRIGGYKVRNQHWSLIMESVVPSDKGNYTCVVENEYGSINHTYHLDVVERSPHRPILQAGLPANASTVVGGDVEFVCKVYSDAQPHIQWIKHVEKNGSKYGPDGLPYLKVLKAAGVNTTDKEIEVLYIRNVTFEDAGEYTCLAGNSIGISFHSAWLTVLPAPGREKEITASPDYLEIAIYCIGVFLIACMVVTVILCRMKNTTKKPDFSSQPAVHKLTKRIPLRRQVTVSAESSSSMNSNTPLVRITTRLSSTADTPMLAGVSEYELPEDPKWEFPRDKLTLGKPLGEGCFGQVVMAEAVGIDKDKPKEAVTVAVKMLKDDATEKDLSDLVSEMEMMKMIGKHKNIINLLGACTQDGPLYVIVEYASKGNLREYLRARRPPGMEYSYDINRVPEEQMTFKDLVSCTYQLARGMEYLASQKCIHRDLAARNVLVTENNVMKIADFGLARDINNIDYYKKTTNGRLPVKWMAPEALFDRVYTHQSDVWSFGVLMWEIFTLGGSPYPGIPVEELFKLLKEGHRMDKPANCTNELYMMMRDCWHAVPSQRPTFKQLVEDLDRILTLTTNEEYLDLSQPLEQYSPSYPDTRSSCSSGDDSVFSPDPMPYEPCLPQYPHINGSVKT

[10] = molecular target: each individual kinase of the panel (Homo sapiens, UniProt P35916); experiment: as above; details: for % Activity: Flt4(h)
each individual kinase of the panel (Homo sapiens, UniProt P35916), sequence (P35916 25-1363 limits assumed): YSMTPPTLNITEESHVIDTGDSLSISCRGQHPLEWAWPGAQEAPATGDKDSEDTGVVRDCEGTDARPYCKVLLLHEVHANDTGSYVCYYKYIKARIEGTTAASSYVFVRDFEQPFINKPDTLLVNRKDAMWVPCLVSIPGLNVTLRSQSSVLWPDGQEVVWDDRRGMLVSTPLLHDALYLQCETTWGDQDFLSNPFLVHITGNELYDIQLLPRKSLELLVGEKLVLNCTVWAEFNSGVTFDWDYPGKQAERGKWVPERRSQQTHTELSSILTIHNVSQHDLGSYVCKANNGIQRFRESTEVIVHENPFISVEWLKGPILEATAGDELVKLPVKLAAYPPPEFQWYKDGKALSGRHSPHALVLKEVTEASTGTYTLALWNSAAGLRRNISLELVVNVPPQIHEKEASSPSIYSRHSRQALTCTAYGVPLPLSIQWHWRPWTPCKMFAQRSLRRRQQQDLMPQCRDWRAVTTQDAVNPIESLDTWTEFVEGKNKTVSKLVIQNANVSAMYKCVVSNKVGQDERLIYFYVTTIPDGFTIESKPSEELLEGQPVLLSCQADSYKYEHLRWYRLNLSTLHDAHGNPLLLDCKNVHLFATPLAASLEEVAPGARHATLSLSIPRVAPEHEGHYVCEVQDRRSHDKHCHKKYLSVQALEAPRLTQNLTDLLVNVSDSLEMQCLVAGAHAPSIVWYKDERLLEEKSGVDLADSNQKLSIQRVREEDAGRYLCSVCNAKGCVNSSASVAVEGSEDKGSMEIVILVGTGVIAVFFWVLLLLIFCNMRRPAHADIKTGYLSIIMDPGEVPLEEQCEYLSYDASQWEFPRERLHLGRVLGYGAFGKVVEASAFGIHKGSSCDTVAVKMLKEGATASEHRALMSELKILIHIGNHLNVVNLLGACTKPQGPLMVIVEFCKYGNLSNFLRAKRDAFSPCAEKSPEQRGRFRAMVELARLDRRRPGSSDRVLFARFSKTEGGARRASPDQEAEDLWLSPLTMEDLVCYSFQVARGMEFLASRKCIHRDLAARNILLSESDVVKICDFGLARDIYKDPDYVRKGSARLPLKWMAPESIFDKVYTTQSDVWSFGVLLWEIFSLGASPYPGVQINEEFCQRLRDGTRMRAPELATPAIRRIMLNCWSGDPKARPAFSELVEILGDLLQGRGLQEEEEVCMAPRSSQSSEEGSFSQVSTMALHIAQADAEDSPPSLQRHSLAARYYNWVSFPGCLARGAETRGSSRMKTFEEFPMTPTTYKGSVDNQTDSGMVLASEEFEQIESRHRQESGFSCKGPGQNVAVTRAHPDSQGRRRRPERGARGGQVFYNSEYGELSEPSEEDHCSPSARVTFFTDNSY

[11] = molecular target: each individual kinase of the panel (Homo sapiens, UniProt O43293); experiment: as above; details: for % Activity: ZIPK(h)
[12] = molecular target: each individual kinase of the panel (Homo sapiens, UniProt Q15375); experiment: as above; details: for % Activity: EphA7(h)
each individual kinase of the panel (Homo sapiens, UniProt Q15375), sequence (Q15375 28-998 limits assumed): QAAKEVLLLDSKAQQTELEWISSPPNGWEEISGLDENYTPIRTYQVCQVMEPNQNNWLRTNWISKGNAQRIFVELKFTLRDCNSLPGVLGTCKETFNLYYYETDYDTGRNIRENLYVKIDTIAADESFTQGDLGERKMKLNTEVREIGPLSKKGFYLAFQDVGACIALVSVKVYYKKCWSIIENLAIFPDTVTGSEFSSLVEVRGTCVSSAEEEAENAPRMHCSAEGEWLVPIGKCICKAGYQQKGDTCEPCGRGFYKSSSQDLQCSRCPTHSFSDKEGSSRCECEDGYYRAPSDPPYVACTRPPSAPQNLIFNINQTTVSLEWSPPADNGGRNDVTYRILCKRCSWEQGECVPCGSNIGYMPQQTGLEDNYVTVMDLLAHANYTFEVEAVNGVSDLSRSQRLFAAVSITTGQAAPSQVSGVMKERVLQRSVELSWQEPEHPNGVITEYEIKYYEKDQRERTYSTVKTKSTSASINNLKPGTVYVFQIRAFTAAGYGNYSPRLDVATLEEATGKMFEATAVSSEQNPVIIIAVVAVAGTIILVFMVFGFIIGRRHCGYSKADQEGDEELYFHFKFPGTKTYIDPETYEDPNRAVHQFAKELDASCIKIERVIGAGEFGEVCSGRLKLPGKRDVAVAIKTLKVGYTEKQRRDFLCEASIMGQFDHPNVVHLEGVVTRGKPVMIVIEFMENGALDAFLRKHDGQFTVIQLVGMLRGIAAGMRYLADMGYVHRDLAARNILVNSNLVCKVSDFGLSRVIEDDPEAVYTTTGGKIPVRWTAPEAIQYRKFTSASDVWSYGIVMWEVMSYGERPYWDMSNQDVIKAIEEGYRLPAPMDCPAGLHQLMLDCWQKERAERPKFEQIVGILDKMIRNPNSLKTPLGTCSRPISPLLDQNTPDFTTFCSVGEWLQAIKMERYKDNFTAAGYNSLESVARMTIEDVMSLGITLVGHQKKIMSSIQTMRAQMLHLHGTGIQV

[13] = molecular target: each individual kinase of the panel (Homo sapiens, UniProt Q99683); experiment: as above; details: for % Activity: ASK1(h)
[14] = molecular target: each individual kinase of the panel (Homo sapiens, UniProt P68400); experiment: as above; details: for % Activity: CK2(h)
[15] = molecular target: each individual kinase of the panel (Homo sapiens, UniProt P43403); experiment: as above; details: for % Activity: ZAP-70(h)
[16] = molecular target: each individual kinase of the panel (Homo sapiens, UniProt Q04912); experiment: as above; details: for % Activity: Ron(h)
[17] = molecular target: each individual kinase of the panel (Homo sapiens, UniProt Q9HBH9); experiment: as above; details: for % Activity: Mnk2(h)
[18] = molecular target: each individual kinase of the panel (Homo sapiens, UniProt P53350); experiment: as above; details: Plk1(h)
[19] = molecular target: each individual kinase of the panel (Homo sapiens, UniProt O60285); experiment: as above; details: for % Activity: ARK5(h)
[20] = molecular target: each individual kinase of the panel (Homo sapiens, UniProt Q06418); experiment: as above; details: for % Activity: Rse(h)
each individual kinase of the panel (Homo sapiens, UniProt Q06418), sequence (Q06418 41-890 limits assumed): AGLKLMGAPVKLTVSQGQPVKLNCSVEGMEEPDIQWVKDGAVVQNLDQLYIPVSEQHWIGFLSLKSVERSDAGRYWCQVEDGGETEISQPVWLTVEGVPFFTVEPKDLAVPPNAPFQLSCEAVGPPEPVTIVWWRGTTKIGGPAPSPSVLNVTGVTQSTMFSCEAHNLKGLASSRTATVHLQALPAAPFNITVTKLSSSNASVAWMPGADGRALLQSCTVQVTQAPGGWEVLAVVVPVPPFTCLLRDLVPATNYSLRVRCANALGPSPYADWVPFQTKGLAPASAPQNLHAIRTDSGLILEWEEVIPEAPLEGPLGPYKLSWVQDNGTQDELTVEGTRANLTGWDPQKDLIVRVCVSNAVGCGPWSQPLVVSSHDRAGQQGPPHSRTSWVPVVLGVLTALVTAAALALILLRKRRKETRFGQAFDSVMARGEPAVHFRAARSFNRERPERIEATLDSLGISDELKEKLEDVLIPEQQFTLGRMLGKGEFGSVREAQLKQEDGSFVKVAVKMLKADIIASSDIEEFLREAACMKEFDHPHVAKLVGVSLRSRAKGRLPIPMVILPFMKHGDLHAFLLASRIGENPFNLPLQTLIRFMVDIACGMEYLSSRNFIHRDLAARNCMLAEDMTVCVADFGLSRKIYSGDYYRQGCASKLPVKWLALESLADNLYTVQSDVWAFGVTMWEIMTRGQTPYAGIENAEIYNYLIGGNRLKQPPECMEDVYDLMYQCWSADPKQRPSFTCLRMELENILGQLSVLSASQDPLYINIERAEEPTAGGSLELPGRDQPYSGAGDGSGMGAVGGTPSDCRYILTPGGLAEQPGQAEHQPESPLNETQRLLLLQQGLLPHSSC

[21] = molecular target: other protein kinases (each individual kinase); experiment: Standardized radiometric kinase assays, IC50 over 10 drug concentrations; format: biochemical; details: estimated
[22] = molecular target: each individual kinase of the panel (Homo sapiens, UniProt Q00534); experiment: Standardized radiometric kinase assays, percentage of activity at 0.5 μM;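 also: Read-out is ³³P-labelled substrate protein phosphorylated by each kinase, captured on filters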
[23] = molecular target: each individual kinase of the panel (Homo sapiens, UniProt P51955); experiment: as above
[24] = molecular target: each individual kinase of the panel (Homo sapiens, UniProt P41240); experiment: as above
each individual kinase of the panel (Homo sapiens, UniProt P41240), sequence (P41240 2-450 limits assumed): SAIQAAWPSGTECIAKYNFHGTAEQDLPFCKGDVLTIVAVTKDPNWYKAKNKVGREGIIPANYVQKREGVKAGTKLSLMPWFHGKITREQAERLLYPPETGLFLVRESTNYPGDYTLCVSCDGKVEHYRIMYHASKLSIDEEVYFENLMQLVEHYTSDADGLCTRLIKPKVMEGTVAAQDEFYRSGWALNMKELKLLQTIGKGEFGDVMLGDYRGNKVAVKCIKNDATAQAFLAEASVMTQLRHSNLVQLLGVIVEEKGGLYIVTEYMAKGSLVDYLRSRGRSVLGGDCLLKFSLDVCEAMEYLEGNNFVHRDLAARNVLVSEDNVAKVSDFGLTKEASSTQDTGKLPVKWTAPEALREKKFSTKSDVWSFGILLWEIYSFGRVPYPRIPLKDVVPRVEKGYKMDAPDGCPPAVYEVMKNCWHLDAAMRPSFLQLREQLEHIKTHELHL

[25] = molecular target: each individual kinase of the panel (Homo sapiens, UniProt P51813); experiment: as above
[26] = molecular target: each individual kinase of the panel (Homo sapiens, UniProt P43405); experiment: as above
[27] = molecular target: each individual kinase of the panel (Mus musculus, UniProt P16277); experiment: as above
[28] = molecular target: each individual kinase of the panel (Homo sapiens, UniProt Q8N568); experiment: as above
[29] = molecular target: each individual kinase of the panel (Homo sapiens, UniProt Q13882); experiment: as above

Structure (SMILES): Clc1ccccc1Nc1nc2c(-c3nnc[nH]3)cccc2c2cnccc12 [A]
- % Activity [1]: 94%
- % Activity [2]: 95%
- % Activity [3]: 23%
- % Activity [4]: 21%
- % Activity [5]: 66%
- % Activity [6]: 107%
- % Activity [7]: 101%
- % Activity [8]: 61%
- % Activity [9]: 93%
- % Activity [10]: 17%
- % Activity [11]: 100%
- % Activity [12]: 96%
- % Activity [13]: 92%
- % Activity [14]: 58%
- % Activity [15]: 97%
- % Activity [16]: 99%
- % Activity [17]: 54%
- % Activity [18]: 96%
- % Activity [19]: 39%
- % Activity [20]: 109%
- IC50 ([21]; Flt3(h)): 104 nM
- IC50 ([21]; Pim-1(h)): 1 nM
- IC50 ([21]; Pim-2(h)): 6 nM
- IC50 ([21]; Pim-3(h)): 86 nM
- IC50 ([21]; Rsk1(h)): 41 nM
- IC50 ([21]; Rsk2(h)): 72 nM
- IC50 ([21]; Rsk3(h)): 73 nM
- IC50 ([21]; Rsk4(h)): 37 nM

Structure (SMILES): NC(=O)c1cccc2c1nc(Nc1cccc(Cl)c1)c1ccncc12 [B]
- % Activity [1]: 94%
- % Activity [2]: 93%
- % Activity [3]: 25%
- % Activity [4]: 38%
- % Activity [5]: 69%
- % Activity [6]: 91%
- % Activity [7]: 88%
- % Activity [8]: 62%
- % Activity [9]: 94%
- % Activity [10]: 41%
- % Activity [11]: 19%
- % Activity [12]: 90%
- % Activity [13]: 93%
- % Activity ([22]; CDK6/cyclinD3(h)): 63%
- % Activity [14]: 48%
- % Activity ([23]; NEK2(h)): 95%
- % Activity [15]: 106%
- % Activity [16]: 95%
- % Activity [17]: 33%
- % Activity [18]: 76%
- % Activity [19]: 98%
- % Activity [20]: 87%

Next, values leading:

- PDGFRB percentage of activity [1]: −10%
- EPHA5 percentage of activity [2]: −25%
- GSK3B percentage of activity [3]: 44%
- CK1 gamma 3 percentage of activity [4]: 0%
- CSK percentage of activity [24]: −46%
- RAF1 percentage of activity [5]: 31%
- SRPK1 percentage of activity [6]: 34%
- BMX percentage of activity [25]: −18%
- PDK1 percentage of activity [7]: −10%
- HCK percentage of activity [8]: −11%
- FGFR2 percentage of activity [9]: −7%
- FLT4 percentage of activity [10]: 101%
- SYK percentage of activity [26]: −9%
- Blk(m) percentage of activity [27]: 0%
- DCAMKL2 percentage of activity [28]: −3%
- DAPK3 percentage of activity [11]: 88%
- EPHA7 percentage of activity [12]: 1%
- ASK percentage of activity [13]: −16%
- CDK6/cyclinD3 percentage of activity [22]: −8%
- NEK2 percentage of activity [23]: 23%
- ZAP70 percentage of activity [15]: −18%
- RON percentage of activity [16]: −6%
- ARK5 percentage of activity [19]: −8%
- TYRO3 percentage of activity [20]: −9%
- BRK percentage of activity [29]: −10%
Structure (SMILES): C#Cc1cccc(Nc2nc3cc(C(=O)O)ccc3c3cncnc23)c1 [drawing 1135]

- PDGFRB percentage of activity [1]: −2%
- EPHA5 percentage of activity [2]: 12%
- GSK3B percentage of activity [3]: 28%
- CK1 gamma 3 percentage of activity [4]: 32%
- CSK percentage of activity [24]: −9%
- RAF1 percentage of activity [5]: 62%
- SRPK1 percentage of activity [6]: 63%
- BMX percentage of activity [25]: 8%
- PDK1 percentage of activity [7]: 8%
- HCK percentage of activity [8]: 26%
- FGFR2 percentage of activity [9]: 11%
- FLT4 percentage of activity [10]: 101%
- Blk(m) percentage of activity [27]: 33%
- DAPK3 percentage of activity [11]: 87%
- EPHA7 percentage of activity [12]: 5%
- ASK percentage of activity [13]: −1%
- CDK6/cyclinD3 percentage of activity [22]: 12%
- NEK2 percentage of activity [23]: 73%
- ZAP70 percentage of activity [15]: 2%
- RON percentage of activity [16]: 9%
- Mnk2 percentage of activity [17]: −2%
- ARK5 percentage of activity [19]: 14%
- TYRO3 percentage of activity [20]: 22%
- BRK percentage of activity [29]: 18%
Structure (SMILES): C#Cc1cccc(Nc2nc3cc(C(=O)O)ccc3c3cnccc23)c1 [drawing 1137]

- PDGFRB percentage of activity [1]: 3%
- EPHA5 percentage of activity [2]: 8%
- GSK3B percentage of activity [3]: 26%
- CK1 gamma 3 percentage of activity [4]: −5%
- CSK percentage of activity [24]: 14%
- RAF1 percentage of activity [5]: 62%
- SRPK1 percentage of activity [6]: 7%
- PDK1 percentage of activity [7]: 7%
- HCK percentage of activity [8]: 28%
- FGFR2 percentage of activity [9]: 9%
- FLT4 percentage of activity [10]: 40%
- DAPK3 percentage of activity [11]: 34%
- EPHA7 percentage of activity [12]: 0%
- ASK percentage of activity [13]: 2%
- CDK6/cyclinD3 percentage of activity [22]: 6%
- CK2 alpha 1 percentage of activity [14]: 84%
- NEK2 percentage of activity [23]: 13%
- ZAP70 percentage of activity [15]: −2%
- RON percentage of activity [16]: −3%
- Mnk2 percentage of activity [17]: 32%
- ARK5 percentage of activity [19]: 5%
- TYRO3 percentage of activity [20]: 2%
Structure (SMILES): NC(=O)c1ccc2c(c1)nc(Nc1cccc(Cl)c1)c1ccncc12 [drawing 1138]
